# Values quoted from earlier work as cited in patent US11590211B2, “Systems for treating dermal inflammatory conditions” (Nuvothera, Inc., priority 2016, dated 2023).
# What was measured:
# skin cells = details: reference 10
# human keratinocytes = details: through suppression of pro-inflammatory pathways; references 8, 9
# NF-κB = details: reference 5
# modified mouse tail test = details: reference 7
structure (smiles),measurement,setting,value
COc1cc(/C=C/C(=O)CC(=O)/C=C/c2ccc(O)c(OC)c2)ccc1O [curcumin],Effect on anti-apoptotic function of TNF-α in skin cells,skin cells,reverse the anti-apoptotic function of TNF-α
same,Effect on proliferation of human keratinocytes,human keratinocytes,inhibition of the proliferation
same,Activation of NF-κB,NF-κB,down-modulated
same,Activity in the modified mouse tail test,modified mouse tail test,anti-psoriatic activity
